Test results reported in patent US20250018014A1, “METHOD FOR TREATING AND/OR PREVENTING REGNASE-1-RELATED DISEASE” (OSAKA UNIVERSITY, priority 2018, published 2025).
Residues, ends and D or L forms follow the SMILES beside them.

target: T1, FL_Reg1 (Homo sapiens, UniProt Q5D1E8); test: Binding of Regnase-1 and peptide compounds (affinity mass analysis, SEC then LC/MS); settings: 1 μM FL_Reg1, final compound concentration 1 μM, 23° C. for one hour
T1 construct: made in house; host or cells: Expi293 cells
T1 sequence (Q5D1E8 1-599): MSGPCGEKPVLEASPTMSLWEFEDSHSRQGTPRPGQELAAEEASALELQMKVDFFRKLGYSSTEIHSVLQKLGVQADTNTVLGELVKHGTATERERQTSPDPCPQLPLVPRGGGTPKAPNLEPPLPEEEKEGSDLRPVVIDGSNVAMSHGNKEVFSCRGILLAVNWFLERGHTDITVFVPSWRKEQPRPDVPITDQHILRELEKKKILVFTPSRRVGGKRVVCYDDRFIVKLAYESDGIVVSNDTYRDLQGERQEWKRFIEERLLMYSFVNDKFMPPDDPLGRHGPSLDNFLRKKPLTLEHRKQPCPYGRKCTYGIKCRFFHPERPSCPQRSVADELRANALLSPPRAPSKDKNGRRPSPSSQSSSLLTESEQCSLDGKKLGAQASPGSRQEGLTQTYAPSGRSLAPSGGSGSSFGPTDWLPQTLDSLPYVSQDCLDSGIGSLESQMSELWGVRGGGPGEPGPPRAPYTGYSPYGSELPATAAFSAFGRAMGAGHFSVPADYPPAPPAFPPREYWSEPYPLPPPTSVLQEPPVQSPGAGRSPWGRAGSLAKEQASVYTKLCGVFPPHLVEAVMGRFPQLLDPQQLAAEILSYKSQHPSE
Description: To a 96 PP plate (Greiner bio-one, 651201) coated with lipidure (Lipidure-CM5206) (NOF CORPORATION, 71S42000001), 2 μL of Tris-Buffer (25 mM Tris-NaOH pH 8.3, 300 mM NaCl, 1 mM DTT, 1 mM EDTA, 1% DMSO) was dispensed, and then 1 mM DMSO sample was added at 20 nL each with a LABCYTE ECHO (registered trademark) acoustic dispensing system. Furthermore, 18 μL of protein prepared at 1 μM FL_Reg1 in advance using Tris-Buffer was added (final compound concentration: 1 μM), and the mixture was incubated in the dark at 23° C. for one hour. Then, to a 96-well, 400 μL, Hydrophilic PVDF 0.45 μm, Long drip (Harvard, 74-5556), 100 μL of P-2, Fine (Bio-Rad, 1504114) which had been swollen in advance was added, and conditioning was performed by centrifuging several times at 2000× G for two minutes using the buffer. Next, 20 μL of the sample after incubation was added to the conditioned 96-well, 400 μL, Hydrophilic PVDF 0.45 μm, Long drip, and SEC treatment was performed by centrifugation at 2000×G for two minutes. To the liquid from SEC, 32 μL of acetonitrile (LC/MS grade, FUJIFILM Wako Pure Chemical Industries, Ltd.) supplemented with 0.1% formic acid (LC/MS grade, 067-04531, FUJIFILM Wako Pure Chemical Industries, Ltd.) was added, and this was centrifuged at 1800×G for five minutes, and the supernatant was used as an analysis sample for LC/MS measurement. Binding to Regnase-1 was detected for all of the peptide compounds, PP1 to PP25.

SMILES	AS-MS ratio(%)
CC[C@H](C)[C@@H]1NC(=O)[C@H](CC(N)=O)NC(=O)[C@H](Cc2ccc(O)cc2)NC(=O)[C@H](Cc2c[nH]c3ccccc23)NC(=O)[C@H](CO)NC(=O)[C@H](CC(N)=O)NC(=O)[C@H](CO)NC(=O)[C@H](Cc2ccccc2)NC(=O)[C@H](CC(N)=O)NC(=O)[C@H](C)N(C)C(=O)C[C@@H](C(=O)N2CCCC2)NC(=O)[C@H](Cc2c[nH]c3ccccc23)NC1=O [PP16] (HELM PEPTIDE1{[meA].N.F.S.N.S.W.Y.N.I.W.D.[C1CCN([*:1])C1]}$PEPTIDE1,PEPTIDE1,1:R1-12:R3$$$V2.0)	17.9
CC[C@H](C)[C@@H]1NC(=O)[C@H](CCCNC(=N)N)NC(=O)[C@H](Cc2ccc(O)cc2)NC(=O)[C@H](Cc2c[nH]c3ccccc23)NC(=O)[C@H](CO)NC(=O)[C@H](CC(N)=O)NC(=O)[C@H](C)N(C)C(=O)C[C@@H](C(=O)N2CCCC2)NC(=O)[C@H](CC(C)C)NC(=O)CNC(=O)[C@H](Cc2c[nH]c3ccccc23)NC1=O [PP22] (HELM PEPTIDE1{[meA].N.S.W.Y.R.I.W.G.L.D.[C1CCN([*:1])C1]}$PEPTIDE1,PEPTIDE1,1:R1-11:R3$$$V2.0)	14.5
CC[C@H](C)[C@@H]1NC(=O)[C@H](CC(N)=O)NC(=O)[C@H]([C@@H](C)CC)NC(=O)[C@H](Cc2ccc(O)cc2)NC(=O)[C@H](Cc2c[nH]c3ccccc23)NC(=O)[C@H](CO)NC(=O)[C@H](CC(N)=O)NC(=O)[C@H](C)N(C)C(=O)C[C@@H](C(=O)N2CCCC2)NC(=O)[C@H](Cc2c[nH]cn2)NC(=O)CNC(=O)[C@H](Cc2c[nH]c3ccccc23)NC1=O [PP15] (HELM PEPTIDE1{[meA].N.S.W.Y.I.N.I.W.G.H.D.[C1CCN([*:1])C1]}$PEPTIDE1,PEPTIDE1,1:R1-12:R3$$$V2.0)	66.7
CC[C@H](C)[C@@H]1NC(=O)[C@H](CCCCN)NC(=O)[C@H](Cc2ccc(O)cc2)NC(=O)[C@H](Cc2c[nH]c3ccccc23)NC(=O)[C@H](CO)NC(=O)[C@H](CC(N)=O)NC(=O)[C@H](C)N(C)C(=O)C[C@@H](C(=O)N2CCCC2)NC(=O)[C@H](CC(C)C)NC(=O)CNC(=O)[C@H](Cc2c[nH]c3ccccc23)NC1=O [PP21] (HELM PEPTIDE1{[meA].N.S.W.Y.K.I.W.G.L.D.[C1CCN([*:1])C1]}$PEPTIDE1,PEPTIDE1,1:R1-11:R3$$$V2.0)	15.1
CC[C@H](C)[C@@H]1NC(=O)[C@H](CO)NC(=O)[C@H](CCCNC(=N)N)NC(=O)[C@H](Cc2ccc(O)cc2)NC(=O)[C@H](Cc2ccc(O)cc2)NC(=O)[C@H](Cc2c[nH]c3ccccc23)NC(=O)[C@H](CO)NC(=O)[C@H](CCC(N)=O)NC(=O)[C@H](Cc2ccc(O)cc2)NC(=O)[C@H](CC(N)=O)NC(=O)[C@H](C)N(C)C(=O)C[C@@H](C(=O)N2CCCC2)NC(=O)[C@H](Cc2c[nH]c3ccccc23)NC1=O [PP10] (HELM PEPTIDE1{[meA].N.Y.Q.S.W.Y.Y.R.S.I.W.D.[C1CCN([*:1])C1]}$PEPTIDE1,PEPTIDE1,1:R1-13:R3$$$V2.0)	3.7
